System: Mouse tail
Test: Topical anti-psoriatic activity by Mouse tail test
Assay type: in vivo
Conditions: follow up study, 0.005%
Source text: Pharmacological Screening of the Extracts and Oils for Topical Anti-Psoriatic Activity by Mouse Tail Test The composite extracts, oils blends and individual alcohol extracts were subjected to screening for evaluation of Anti-psoriatic activity by Mouse tail test and the results are summarized as FIG. 1-4.

In the case of C=C1/C(=C\C=C2/CCC[C@]3(C)[C@@H]([C@H](C)/C=C/[C@@H](O)C4CC4)CC[C@@H]23)C[C@@H](O)C[C@@H]1O [Calcipotriol], the “para to orthokeratosis conversion” value is reported as “not found to be statistically significant”.
